This is an account of results in US5151497A, “Histidyl peptide derivatives” (Japan Tobacco Inc., priority 1990, dated 1992).

Where two headings read alike, the source gives them in different places.

Common to all, as to assay type: in vivo
One experiment deals with Wistar male rats. Nature of the experiment: Flexor reflex in spinalized rats. The following applies: intravenous; for response vs control in vivo at 0.1 mg/kg / response vs control in vivo at 0.3 mg/kg: Rattus norvegicus; for response vs control in vivo at 0.1 mg/kg / response vs control in vivo at 0.3 mg/kg / Reflex amplitude (%) 10 min. after / Reflex amplitude (%) 60 min. after: pre-dose mean = 100%; for Area below the reflex amplitude linking line: covering 60 minutes. How it is done:
Wistar male rats (weighing 450-520 g) were anesthetized with ether, and the cervical part of […] was exposed, into which a tracheal cannula was inserted. The vagus nerves were severed bilaterally at the cervical region. Thereafter, the cervical vertebra C1 segment was transected, and rapidly, artificial ventilation was given with the use of an artificial respirator (Shinano Factory 60 rpm. 4 ml/stroke). The rat was placed on a thermostated apparatus in which water thermostated at 37° C. was circulated and fixed thereto at forelimbs, right hindlimb, tooth and tail. A venous cannula was inserted into the femoral vein in the right hindlimb and two needle electrodes were subcutaneously inserted into the left skin of the toe, and a piece of thread was attached to the limb with the edge of the thread bonded to a force-displacement transducer. Tension of about 5 g was applied to the thread. Through the electrodes, electric stimuli of 50-100 V were applied once per 30 seconds. The flexor reflex was recorded on the polygraph via a force-displacement transducer. After the reaction became constant in about one-hours' lapse for stabilization, the test compound dissolved in saline was intravenously administered. Thereafter, the reaction was recorded for 1 hour. In the data, taking the mean of the three reactions just before administration of the test compound for 100%, the reflex amplitude at 1-, 3-, 5-, 8-, 10-, 15-, 20-, 30-, 40-, 50- and 60-minutes' lapse after administration of the test compound were calculated. In Table 3, there are shown calculated area below the straight line linking the obtained reflex amplitude at the respective above-mentioned time covering 60 […], and the reflex amplitude at 10- and 60-minutes' lapse after administration (Table 3).

For experiment [1], the system named is ICR male mice. Kind of experiment: Anti-chlorpromazine action (locomotor stimulant action). The following applies: SC, mice given chlorpromazine.HCl 5 mg/kg s.c. one hour before, from regression line; for ED (3000 locomotor counts): Mus musculus, 2 h, read-out: Concentration of test compound necessary for inducing 3000 count of automatism quantity in 2 hours. The protocol:
ICR male mice weighing 35-40 g (four animals per group) were subcutaneously administered with chlorpromazine.HCl at the dose of 5 mg/kg and immediately set in the automatic locomotor-measuring apparatus (AUTOMEX). One hour later, the test compound dissolved in saline was subcutaneously administered, and the locomotor activity was measured every 15 minutes for 120 minutes. The total locomotor activity during the period of 120 minutes was calculated and the regression line was estimated based on the method of least squares, from which the amount of the test compound necessary for inducing 3000 locomotor-count was estimated (Table 2).

The test system of experiment [2] is ICR male mice. Nature of the experiment: Anti-reserpine action (antagonistic action against hypothermia). The following applies: SC, mice given reserpine 5 mg/kg s.c. 3 or 3.5 hours before, from regression line; for ED (1 degC rise in body temperature): Mus musculus, 2 h, read-out: Concentration of test compound necessary for raising body temperature by 1° C. on the average for 120 minutes. The protocol: ICR male mice weighing 35-40 g were subcutaneously administered with reserpine at the dose of 5 mg/kg. About 2 hours later, each of the mice was held by a mouse-holder, and a body temperature sensor was intrarectally inserted. Thereafter, the body temperature was automatically measured every 10 minutes. The test compound dissolved in saline was subcutaneously administered 3 or 3.5 hours after administration of reserpine. After the administration of the test compound, the body temperature was measured every 10 minutes over the period of 120 minutes. The area below the body temperature line during the period was calculated, from which the regression line was estimated based upon least square method, and estimated was the amount of the test compound necessary for raising the body temperature by 1° C. on the average for 120 minutes from that just before the administration of the test compound (Table 1).

Setting [3] is: 1 h, 0.1 mg/kg, read-out: Reflex amplitude (%) 60 min. after.
Where [4] appears, read: 1 h, 0.3 mg/kg (footnote *), read-out: Reflex amplitude (%) 60 min. after.
The mark [5] stands for this setting: 10 min, 0.1 mg/kg, read-out: Reflex amplitude (%) 10 min. after.
The mark [6] stands for this setting: 10 min, 0.3 mg/kg (footnote *), read-out: Reflex amplitude (%) 10 min. after.

On to `C[C@H]1CC(=O)C[C@H]1C(=O)N[C@@H](Cc1c[nH]cn1)C(=O)N1CCC[C@H]1C(N)=O` (mixture of isomers) [Compound 19, N^α -(cis-2-Methyl-4-oxocyclopentanecarbonyl)-L-histidyl-L-prolinamide], for which the response vs control in vivo at 0.1 mg/kg with Wistar male rats (setting [3]) was determined as 246%. In addition, in the experiment on Wistar male rats (setting [4]), the response vs control in vivo at 0.3 mg/kg is 340%.
As to `C[C@@H]1CC(=O)C[C@H]1C(=O)N[C@@H](Cc1c[nH]cn1)C(=O)N1CCC[C@H]1C(N)=O` (mixture of isomers) [Compound 20, N^α -(trans-2-Methyl-4-oxocyclopentanecarbonyl)-L-histidyl-L-prolinamide], in the experiment on Wistar male rats (setting [3]), the response vs control in vivo at 0.1 mg/kg is 107%. Moreover, in the experiment on Wistar male rats (setting [4]), the response vs control in vivo at 0.3 mg/kg is 223%.
Turning to `C[C@@H]1CC(=O)N[C@@H]1C(=O)N[C@@H](Cc1cnc[nH]1)C(=O)N1CSC[C@H]1C(N)=O` (relative stereo) [Compound 3, 3-[N^α -(cis-3-Methylpyroglutamyl)-L-histidyl]-L-thiazolidine-4-carboxamide], in the experiment with ICR male mice [1], the “Concentration of test compound necessary for inducing 3000 count of automatism quantity in 2 hours” value is recorded as 0.47 mg/kg. Further, in the experiment on Wistar male rats (0.1 mg/kg), the “Area below the reflex amplitude linking line” value amounted to 13811, the “Reflex amplitude (%) 10 min. after” value stood at 190.5% and the “Reflex amplitude (%) 60 min. after” value was found to be 277.6%. The “Concentration of test compound necessary for raising body temperature by 1° C. on the average for 120 minutes” value in the experiment with ICR male mice [2] is 0.20 mg/kg.
For `C[C@H]1CC(=O)N[C@@H]1C(=O)N[C@@H](Cc1c[nH]cn1)C(=O)N1CSC[C@H]1C(N)=O` (relative stereo) [Compound 4, 3-[N^α -(trans-3-Methylpyroglutamyl)-L-histidyl]-L-thiazolidine-4-carboxamide] the same measures were 0.63 mg/kg, 9404, 142.8%, 163.9% and 0.34 mg/kg.
For the compound `C[C@@H]1CC(=O)N[C@@H]1C(=O)N[C@@H](Cc1c[nH]cn1)C(=O)N1CCC[C@H]1C(N)=O` [Compound 1, N^α -(cis-3-Methylpyroglutamyl)-L-histidyl-L-prolinamide], in the experiment with Wistar male rats (setting [3]), the response vs control in vivo at 0.1 mg/kg was 298%.
With `C[C@H]1CC(=O)N[C@@H]1C(=O)N[C@@H](Cc1c[nH]cn1)C(=O)N1CCC[C@H]1C(N)=O` [Compound 2, N^α -(trans-3-Methylpyroglutamyl)-L-histidyl-L-prolinamide], in the experiment on Wistar male rats (setting [3]), the response vs control in vivo at 0.1 mg/kg was 107%.
Same read-out and setting: to `C[C@@H]1CC(=O)O[C@@H]1C(=O)N[C@@H](Cc1c[nH]cn1)C(=O)N1CCC[C@H]1C(N)=O` [Compound 5, N^α -[(2S,3R)-Tetrahydro-3-methyl-5-oxo-2-furancarbonyl]-L-histidyl-L-prolinamide] belongs 168%.
On to `NC(=O)[C@@H]1CCCN1C(=O)[C@H](Cc1c[nH]cn1)NC(=O)[C@H]1NC(=O)C[C@H]1c1ccccc1` [Compound 11, N^α -(cis-3-Phenylpyroglutamyl)-L-histidyl-L-prolinamide], for which the ED (3000 locomotor counts) with ICR male mice [1] came out at 1.89 mg/kg. The response vs control in vivo at 0.1 mg/kg in the experiment with Wistar male rats (setting [5]) is 140%; in the experiment with Wistar male rats (setting [3]) it was 241%. The “Area below the reflex amplitude linking line” value in the experiment with Wistar male rats (0.1 mg/kg) is reported as 11321. Also, in the experiment on ICR male mice [2], the ED (1 degC rise in body temperature) was found to be 0.28 mg/kg.
For `NC(=O)[C@@H]1CCCN1C(=O)[C@H](Cc1c[nH]cn1)NC(=O)C1CCC(=O)C1` (stereo partly drawn) [Compound 13, N^α -(3-Oxocyclopentanecarbonyl)-L-histidyl-L-prolinamide], the response vs control in vivo at 0.1 mg/kg in the experiment with Wistar male rats (setting [3]) is 167%.
Same read-out and setting: to `NC(=O)[C@@H]1CCCN1C(=O)[C@H](Cc1c[nH]cn1)NC(=O)[C@@H]1CCC(=O)C1` [Compound 16, N^α -[(1R)-3-Oxocyclopentanecarbonyl]-L-histidyl-L-prolinamide] belongs 252%.
As to `CC1(C)CC(=O)CC1C(=O)N[C@@H](Cc1c[nH]cn1)C(=O)N1CCC[C@H]1C(N)=O` (stereo partly drawn) [Compound 21, N^α -(2,2-Dimethyl-4-oxocyclopentanecarbonyl)-L-histidyl-L-prolinamide], the response vs control in vivo at 0.1 mg/kg with Wistar male rats (setting [3]) is 145%. Further, in the experiment on Wistar male rats (setting [4]), the response vs control in vivo at 0.3 mg/kg stood at 274%.
`CC(C)C[C@H](NC(=O)[C@H]1NC(=O)C[C@H]1C)C(=O)N1CCC[C@H]1C(N)=O` [Compound 27A, N-(cis-3-Methylpyroglutamyl)-L-leucyl-L-prolinamide]: the response vs control in vivo at 0.1 mg/kg in the experiment with Wistar male rats (setting [5]) is 126%; with Wistar male rats (setting [3]) it was 156%. Besides, the “Area below the reflex amplitude linking line” value with Wistar male rats (0.1 mg/kg) is 8769.
On the same counts, the results for `CSCC[C@H](NC(=O)[C@H]1NC(=O)C[C@H]1C)C(=O)N1CCC[C@H]1C(N)=O` [Compound 28A, N-(cis-3-Methylpyroglutamyl)-L-methionyl-L-prolinamide] are 125%, 195% and 9188.
With `CCC[C@H](NC(=O)[C@H]1NC(=O)C[C@H]1C)C(=O)N1CCC[C@H]1C(N)=O` [Compound 29A, N-(cis-3-Methylpyroglutamyl)-L-norvalyl-L-prolinamide], the response vs control in vivo at 0.3 mg/kg in the experiment with Wistar male rats (setting [6]) turned out to be 124%; with Wistar male rats (setting [4]), 121%. In addition, the “Area below the reflex amplitude linking line” value in the experiment on Wistar male rats (0.3 mg/kg (footnote *)) came to 7063.
As for `CCCC[C@H](NC(=O)[C@H]1NC(=O)C[C@H]1C)C(=O)N1CCC[C@H]1C(N)=O` [Compound 31A, N-(cis-3-Methylpyroglutamyl)-L-norleucyl-L-prolinamide], the response vs control in vivo at 0.1 mg/kg in the experiment on Wistar male rats (setting [5]) worked out at 130%; in the experiment on Wistar male rats (setting [3]) it was 129%. The “Area below the reflex amplitude linking line” value in the experiment on Wistar male rats (0.1 mg/kg) was 8126.
For `CCC[C@H](NC(=O)[C@H]1NC(=O)CC1(C)C)C(=O)N1CCC[C@H]1C(N)=O` [Compound 33A, N-(3,3-Dimethylpyroglutamyl)-L-norvalyl-L-prolinamide], the results for the response vs control in vivo at 0.3 mg/kg in the experiment with Wistar male rats (setting [6]) and with Wistar male rats (setting [4]) were 119% and 120%, respectively. Besides, the “Area below the reflex amplitude linking line” value in the experiment on Wistar male rats (0.3 mg/kg (footnote *)) is recorded as 7172.
With `NC(=O)[C@@H]1CCCN1C(=O)[C@H](Cc1ccccc1)NC(=O)[C@@H]1CCC(=O)C1` [Compound 37, N-[(1R)-3-oxocyclopentanecarbonyl]-L-phenylalanyl-L-prolinamide], the “Area below the reflex amplitude linking line” value in the experiment on Wistar male rats (0.3 mg/kg (footnote *)) is given as 5868.
Take `NC(=O)C1CCCN1C(=O)C(Cc1cnc[nH]1)NC(=O)C1CCC(=O)O1` (stereo not shown) [DN1417, reference compound]: in the experiment with ICR male mice [1], the “Concentration of test compound necessary for inducing 3000 count of automatism quantity in 2 hours” value came to 4.34 mg/kg. For the same compound, in the experiment on Wistar male rats (0.3 mg/kg (footnote *)), the “Area below the reflex amplitude linking line” value was determined as 8152, the “Reflex amplitude (%) 10 min. after” value was 113.7% and the “Reflex amplitude (%) 60 min. after” value came to 162.8%. Besides, in the experiment on ICR male mice [2], the “Concentration of test compound necessary for raising body temperature by 1° C. on the average for 120 minutes” value was 2.06 mg/kg.
With `NC(=O)[C@@H]1CCCN1C(=O)[C@H](Cc1c[nH]cn1)NC(=O)[C@@H]1CCC(=O)N1` [TRH, L-pyroglutamyl-L-histidyl-L-prolinamide, reference compound], the ED (3000 locomotor counts) in the experiment with ICR male mice [1] worked out at 6.82 mg/kg. In addition, the response vs control in vivo at 0.1 mg/kg is 118% in the experiment with Wistar male rats (setting [5]) and 79.3% with Wistar male rats (setting [3]). Moreover, the “Area below the reflex amplitude linking line” value with Wistar male rats (0.1 mg/kg) amounted to 6418. In the experiment on ICR male mice [2], the ED (1 degC rise in body temperature) came out at 2.52 mg/kg.
